Literature values, collected in patent US20120288569A1 (priority 2003, published 2012).

Legend:
[1] = test system: calcification in aortas and kidneys of rats; conditions: rats treated with large amount of vitamin D3

## O=P(O)(O)OP(=O)(O)O [PPi, pyrophosphate]
PPi at 2 μm/L concentration
  uptake by the apatite crystals: rapidly and almost completely taken up
In vitro
  concentration that binds strongly to crystals of hydroxyapatite, inhibiting further precipitation of calcium phosphate: ≥ 0.1 µM
[1]
  effect on calcification in aortas and kidneys: inhibits calcification
